Experimental findings from patent US6900200B2, “Tricyclic hydroxy carboxamides and derivatives thereof tocolytic oxytocin receptor antagonists” (Wyeth, priority 2001, dated 2005) are described below.

By melting point is commonly meant the temperature of the solid-liquid transition. `COc1cc(C(=O)N2Cc3ccc(C(=O)N(C)C[C@H](O)[C@@H](O)[C@@H](O)[C@H](O)CO)n3Cc3ccccc32)ccc1-c1ccccc1C(F)(F)F` [Example 23, 10-{[2-Methoxy-2′-trifluoromethyl-[1,1′-biphenyl]-4-yl]carbonyl}-N-methyl-N-[(2R,3S,4R,5S)-2,3,4,5,6-pentahydroxyhexyl]-10,11-dihydro-5H-pyrrolo[2,1-c][1,4]benzodiazepine-3-carboxamide]: the melting point was 132 to 140 °C (dec.).
